Experimental data published in patent US7803930B2, “Antisense modulation of apolipoprotein B-expression” (Isis Pharmaceuticals, Inc., priority 2002, dated 2010).
In the oligonucleotide strings, read from the 5' end, every base follows the letter of its sugar. An asterisk marks phosphorothioate; unmarked linkages are phosphodiester. Other units and linkages are bracketed, terminal groups are in braces. A string of capitals states the bases alone. e = 2'-O-(2-methoxyethyl) (MOE); [5mC] = 5-methylcytosine; d = 2'-deoxy (DNA)

Legend:
[1] = Toxicity in C57BL/6 mice, two weeks (Example 48): liver enzyme levels, body, liver and spleen weight; type: in vivo, mouse; set-up: Weight BODY / Weight LIVER / Weight SPLEEN: unit not given here; conditions: 25 mg/kg i.p. twice a week
Method: C57BL/6 mice were divided into two groups—one group receiving oligonucleotide treatment and control animals receiving saline treatment. After overnight fasting, mice were dosed intraperitoneally twice a week with saline or 25 mg/kg of one of several oligonucleotides for two weeks. The antisense oligonucleotides used in the present study were ISIS 233172 (SEQ ID NO: 835) and ISIS 233175 (SEQ ID NO: 838), both targeted to rabbit apolipoprotein B, and ISIS 281625 (SEQ ID NO: 224), ISIS 301012 (SEQ ID NO: 247), and ISIS 301027 (SEQ ID NO: 262), targeted to human apolipoprotein B. At study termination and forty eight hours after the final injections, animals were sacrificed and evaluated for liver enzyme levels, body weight, liver weight, and spleen weight.

[2] = tested on: lipoprotein(a); assay: Lipoprotein(a) particle secretion from primary human hepatocytes, ELISA; type: cell-based; conditions: 24 hours
Method: Primary human hepatocytes (InVitro Technologies, Baltimore, Md.), cultured and transfected as described herein, were treated for 24 hours with 50 or 150 nM of ISIS 271009 (SEQ ID NO: 319), 281625 (SEQ ID NO: 224), 301012 (SEQ ID NO: 247) or 301027 (SEQ ID NO: 262). Cells were also treated with 150 nM of the control oligonucleotides ISIS 113529 (SEQ ID NO: 859) or ISIS 13650 (SEQ ID NO: 806). Untreated cells served as a control. Following 24 hours of oligonucleotide treatment, the amount of lipoprotein(a) in the culture medium collected from the treated cells was measured using a commercially available ELISA kit (ALerCHEK Inc., Portland, Me.). The results are the average of three experiments and are expressed as percent change in lipoprotein(a) secretion relative to untreated controls.

[3] = tested on: human apolipoprotein B mRNA; assay: Inhibition of human apolipoprotein B mRNA levels in HepG2 cells, quantitative real-time PCR; type: cell-based; conditions: for % INHIB (inhibition of human apolipoprotein B mRNA levels): HepG2 cells treated with 150 nM of compound, quantitative real-time PCR; for % inhibition of apolipoprotein B mRNA levels / % inhibition 37 nM / % inhibition 75 nM / % inhibition 150 nM / % inhibition 300 nM: normalized to untreated control; for % inhibition of apolipoprotein B mRNA levels: average of two experiments; for % inhibition 37 nM / % inhibition 75 nM / % inhibition 150 nM / % inhibition 300 nM: Table 19 dose response
In short: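 Apolipoprotein B transcript was quantified by one-step TaqMan RT-PCR, normalized to GAPDH or RiboGreen RNA, and expressed as percent inhibition against an untreated-sample standard curve. HepG2 cells were harvested 16-24 h after oligonucleotide exposure, which was delivered with 3.75 μg/mL Lipofectin over 4-7 h at 80% confluency.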

[4] = HepG2 cells, 12.5 nM oligonucleotide
[5] = HepG2 cells, 37 nM oligonucleotide
[6] = HepG2 cells, 75 nM oligonucleotide
[7] = HepG2 cells, 150 nM oligonucleotide
[8] = HepG2 cells, 300 nM oligonucleotide

Substance	Liver Enzymes ALT [1]	Liver Enzymes AST [1]	Weight BODY [1]	Weight LIVER [1]	Weight SPLEEN [1]	% Change in lipoprotein(a) secretion ([2]; 50 nM)	% Change in lipoprotein(a) secretion ([2]; 150 nM)	% INHIB (inhibition of human apolipoprotein B mRNA levels) ([3]; averages from two experiments)	% inhibition of apolipoprotein B mRNA levels [3, 4]	% inhibition of apolipoprotein B mRNA levels [3, 5]	% inhibition of apolipoprotein B mRNA levels [3, 6]	% inhibition of apolipoprotein B mRNA levels [3, 7]	% inhibition of apolipoprotein B mRNA levels [3, 8]	% inhibition 37 nM ([3]; HepG2 cells)	% inhibition 75 nM ([3]; HepG2 cells)	% inhibition 150 nM ([3]; HepG2 cells, 150 nM)	% inhibition 300 nM ([3]; HepG2 cells)	further results
281625 (antisense eA*eG*eG*eT*eT*dA*d[5mC]*d[5mC]*dA*dG*d[5mC]*d[5mC]*dA*d[5mC]*dA*eT*eG*e[5mC]*eA*eG) [compound 281625]	36.2 IU/L	89.5 IU/L	20.9	1.2	0.1	−26%	−24%	94%	44%	66%	83%	85%	94%	62%	76%	84%	94%	–
301027 (eG*e[5mC]*eT*e[5mC]*eA*d[5mC]*dT*dG*dT*dA*dT*dG*dG*dT*dT*eT*eT*eA*eT*e[5mC]; antisense) [compound 301027]	221.3 IU/L	455.3 IU/L	21.2	1.3	0.1	−33%	−44%	89%	–	–	–	–	–	80%	90%	95%	96%	–
271009 (antisense eG*e[5mC]*e[5mC]*eT*e[5mC]*dA*dG*dT*d[5mC]*dT*dG*d[5mC]*dT*dT*d[5mC]*eG*e[5mC]*eG*e[5mC]*e[5mC]) [compound 271009]	–	–	–	–	–	−25%	−42%	–	67%	86%	92%	94%	95%	82%	91%	94%	96%	% INHIB ([3]; Table 12, HepG2 cells, 150 nM, averages from two experiments): 75%
ISIS 301027: SEQ ID NO: 262, 2′-MOE gapmer targeted to human apolipoprotein B (antisense eG*e[5mC]*eT*e[5mC]*eA*d[5mC]*dT*dG*dT*dA*dT*dG*dG*dT*dT*eT*eT*eA*eT*e[5mC])	–	–	–	–	–	–	–	–	–	–	–	–	–	–	–	–	–	levels of liver enzymes relative to saline treatment [1]: drastically increased
113529 (antisense e[5mC]*eT*e[5mC]*eT*eT*dA*d[5mC]*dT*dG*dT*dG*d[5mC]*dT*dG*dT*eG*eG*eA*e[5mC]*eA) [compound 113529]	–	–	–	–	–	–	+14%	–	–	–	–	–	–	–	–	–	–	–
301012 (eG*e[5mC]*e[5mC]*eT*e[5mC]*dA*dG*dT*d[5mC]*dT*dG*d[5mC]*dT*dT*d[5mC]*eG*e[5mC]*eA*e[5mC]*e[5mC]) [compound 301012]	21.2 IU/L	50.6 IU/L	21.3	1.1	0.1	−27%	−37%	87%	63%	79%	90%	92%	95%	–	–	–	–	% Change in apolipoprotein B mRNA expression ([3]; HepG2 cells, 10 nM, 24 hour (Table 41)): −51%; % Change in apolipoprotein B mRNA expression ([3]; HepG2 cells, 50 nM, 24 hour (Table 40)): −44%; % Change in apolipoprotein B mRNA expression ([3]; HepG2 cells, 50 nM, 24 hour (Table 41)): −72%; % Change in apolipoprotein B mRNA expression ([3]; HepG2 cells, 150 nM, 24 hour (Table 40)): −75%; % Change in apolipoprotein B mRNA expression ([3]; HepG2 cells, 150 nM, 24 hour (Table 41)): −92%
